Tested on: Balb/c mice immunized with KLH
Test: Humoral immune response to T-cell dependent antigen (KLH) in mice; isotype-specific anti-KLH ELISA of serum
Format: in vivo, mouse
Details: day 28 after a single injection; 20 μg peptide i.p.; KLH 20 μg s.c. with complete Freund adjuvant
Experimental: To investigate the effect of B134, a representative of the XPY family, inbred SPF mice (Balb/cAwNCrl, 7 to 8 week old, Charles River Laboratories GmbH, Germany) were immunized with KLH, a T-cell dependent antigen. 3 mice per group were injected subcutaneously in the presence of complete Freund adjuvant (50/50 v/v). The mix of antigen (20 μg in 100 μl) with adjuvant (Sigma, #F-5881) was emulsified and injected in the neck region. At the same day 20 μg of immunomodulator B134 or B211 were injected in 200 μl of PBS intraperitoneally. Samples of blood (50-70 μl) were collected from mice on day 7, 14, 21, and 28 from the leg vein. Serum was prepared by clotting the blood for 2 hours at 37° C., followed by 18 hours at 8° C., and centrifugation at 10,000 rpm in an Eppendorf-like centrifuge. Sera were stored diluted with antibody stabilizer (SkyTec ABB500) at 4° C., and analyzed in ELISA simultaneously. For the latter assay, the 96 wells ELISA plates (Greiner, #655061) were coated with KLH (soluble, Sigma H7017) in phosphate buffered solution (PBS), 0.2 μg/well overnight at 4° C. The diluted sera were incubated with antigen ([…]) for 1 hour at room temperature, followed by a wash with PBS/0.1% Tween-20. The binding of mouse antibodies to KLH was detected using isotype specific anti-mouse immunoglobulins, conjugated with HRP (Southern Biotechnology Ltd., anti-mouse IgM #1021-05, anti-mouse IgG1 #1070-05, anti-mouse IgG2a # 1080-05, anti-mouse IgG2b #1090-05) according to the manufacturer's protocol. TMB was used as a substrate. The results were analyzed on Bio-Rad Microplate Reader Model 550, the optical density was measured at 595 nm.
Results shown in FIG. 1 represent titration slope of the serum from experimental mice. The dilutions of sera used are from 1/300 to 1/20,000 with a step of ½ (indicated on X axis as 1 to 6 respectively). The serum reactivity is presented as O.D. shown by a sample in ELISA. The dots represent the average reactivity of samples from 3 sera (from 3 mice per condition). The variation bar represents the 95% confidence interval.

## IEWIPY [B211]
  titer of IgG2a, times higher than in control mice immunized with antigen alone: ~4 times
  titer of IgG2b, times higher than in control mice immunized with antigen alone: ~4 times
  titre of specific IgG1 in sera, times higher than in control mice immunized with antigen alone: approximately 16 times

## Ile-Pro-Tyr [B134]
  titer of IgG2a, times higher than in control mice immunized with antigen alone: approximately 2 times
  titer of IgG2b, times higher than in control mice immunized with antigen alone: approximately 2 times
  titer of IgM, times higher than in control mice immunized with antigen alone (every isotype analyzed): approximately 2 times
  titre of specific IgG1 in sera, times higher than in control mice immunized with antigen alone: approximately 2 times

From US20090074802A1, “IMMUNOMODULATING OLIGOPEPTIDES” (priority 2006, published 2009)
